Data from US4271170A, “Pyridine derivatives” (Ono Pharmaceutical Co., Ltd.,, priority 1978, dated 1981).
Counter-ions that a name gives are not always drawn.

Target: T1, thromboxane synthetase from rabbit platelet microsomes (Oryctolagus cuniculus, UniProt G1TAZ9)
T1 construct: thromboxane synthetase from rabbit platelet microsomes; from tissue; host or cells: rabbit platelet microsomes
T1 sequence (G1TAZ9 1-530): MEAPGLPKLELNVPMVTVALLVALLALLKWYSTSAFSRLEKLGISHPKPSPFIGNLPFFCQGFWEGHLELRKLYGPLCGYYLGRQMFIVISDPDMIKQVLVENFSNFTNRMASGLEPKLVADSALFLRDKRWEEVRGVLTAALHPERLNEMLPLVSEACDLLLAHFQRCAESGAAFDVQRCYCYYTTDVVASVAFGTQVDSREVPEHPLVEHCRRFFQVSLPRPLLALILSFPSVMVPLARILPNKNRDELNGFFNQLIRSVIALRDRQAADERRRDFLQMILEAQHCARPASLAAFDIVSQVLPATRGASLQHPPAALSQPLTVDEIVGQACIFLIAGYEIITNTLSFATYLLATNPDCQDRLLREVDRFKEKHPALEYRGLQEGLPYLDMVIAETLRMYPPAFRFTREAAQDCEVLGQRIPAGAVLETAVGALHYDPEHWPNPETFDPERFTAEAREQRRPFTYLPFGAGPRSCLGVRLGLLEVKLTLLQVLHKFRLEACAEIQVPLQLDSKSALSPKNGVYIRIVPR
Test: inhibition of thromboxane synthetase from rabbit platelet microsomes (conversion of prostaglandin H2 into thromboxane B2)
Assay type: biochemical
Conditions: not given

| Molecule | IC50 [nM] |
| --- | --- |
| CCOC(=O)C(C)Oc1ccc(Cc2cccnc2)cc1 (centres unmarked) [2-[4-(3-Pyridylmethyl)phenoxy]propionic acid ethyl ester] | 3 to 650 |

Same assay, conditions: rabbit platelet microsomes; one common range stated for all listed compounds; read-out: molar concentration producing a 50% inhibition of thromboxane synthetase

| IC50 [nM] | Molecule |
| --- | --- |
| 3 to 650 | O=C(O)/C(Br)=C/c1ccc(Cc2cccnc2)cc1 [(2)-2-Bromo-3-[4-(3-pyuridylemthyl)phenyl]acrylic acid hydrochloride] |
| 3 to 650 | Oc1ccc(Cc2cccnc2)cc1 [4-(3-pyridylmethyl)phenol hydrochloride, 4-(3-Pyridylmethyl)phenol hydrochloride] |
| 3 to 650 | CC(Oc1ccc(Cc2cccnc2)cc1)C(=O)O (centres unmarked) [2-[4-(3Pyridylmethyl)phenoxy]propionic acid hydrochloride] |
| 3 to 650 | O=C(O)/C=C/c1ccc(Cc2cccnc2)cc1 [(E)-3-[4-(3-Pyridylmethyl)phenyl]acrylic acid hydrochloride] |
| 3 to 650 | CCSC(=O)/C(C)=C/c1ccc(Cc2cccnc2)cc1 [(E)-2-Methyl-3-[4-(3-pyridylmethyl)phenyl]thioacrylic S-acid S-ethyl ester hydrochloride] |
| 3 to 650 | O=C(O)Cc1ccc(Cc2cccnc2)cc1 [4-(3-Pyridylmethyl)phenylacetic acid hydrochloride] |
| 3 to 650 | CC(C)(Oc1ccc(Cc2cccnc2)cc1)C(=O)O [2-Methyl-2-[4-(3-pyridylmethyl)phenoxy]propionic acid hydrochloride] |
| 3 to 650 | CC(C)(Cc1ccc(Cc2cccnc2)cc1)C(=O)O [2,2-Dimethyl-3-[4-(3-pyridylmethyl)phenyl]propionic acid hydrochloride] |
| 3 to 650 | CC(CC(=O)O)c1ccc(Cc2cccnc2)cc1 (centres unmarked) [3-[4-(3-Pyridylmethyl)phenyl]butyric acid hydrochloride] |
| 3 to 650 | CC(C)(Sc1ccc(Cc2cccnc2)cc1)C(=O)O [2-Methyl-2-[4-(3-pyridylmethyl)phenylthio]propionic acid hydrochloride] |
| 3 to 650 | O=C(O)c1ccc(Cc2cccnc2)cc1 [4-(3-Pyridylmethyl)benzoic acid hydrochloride] |
| 3 to 650 | C/C(=C\c1ccc(Cc2cccnc2)cc1)C(=O)O [(E)-2-Methyl-3-[4-(3-pyridylmethyl)pehnyl]acrylic acid hydrochloride] |
| 3 to 650 | CC(Cc1ccc(Cc2cccnc2)cc1)C(=O)O (centres unmarked) [2-Methyl-3-[4-(3-pyridylmethyl)phenyl]propionic acid hydrochloride] |
| 3 to 650 | C/C(=C\C(=O)O)c1ccc(Cc2cccnc2)cc1 [(E)-3-[4-(3-Pyridylmethyl)phenyl]-2-butenoic acid hydrochloride] |

More lines, now with the values behind:

| Molecule | IC50 [nM] |
| --- | --- |
| O=C(O)CCc1ccc(Cc2cccnc2)cc1 [3-[4-(3-Pyridylmethyl)phenyl]propionic acid hydrochloride] | 3 to 650 |
| CCOC(=O)/C(C)=C/c1ccc(Cc2cccnc2)c(C)c1 [(E)-2-Methyl-3-[3-Methyl-4-(3-pyridylmethyl)phenyl]acrylic acid ethyl ester] | 3 to 650 |
| CC/C(=C\c1ccc(Cc2cccnc2)cc1)C(=O)O [(E)-2-Ethyl-3-[4-(3-pyridylmethyl)phenyl]acrylic acid hydrochloride] | 3 to 650 |
| C/C(=C\c1ccc(Cc2cccnc2)cc1)C(=O)OCc1ccc(-c2ccccc2)cc1 [(E)-2-Methyl-3-[4-(3-pyridylmethyl)phenyl]acrylic acid biphenylmethyl ester] | 3 to 650 |
| COC(=O)/C(Br)=C/c1ccc(Cc2cccnc2)cc1 [(Z)-2-Bromo-3-[4-(3-pyridylmethyl)phenyl]acrylic acid methyl ester] | 3 to 650 |
| O=C(O)COc1ccc(Cc2cccnc2)cc1 [2-[4-(3-Pyridylmethyl)phenoxy]acetic acid hydrochloride] | 3 to 650 |
| CCOC(=O)C(C)Cc1ccc(Cc2cccnc2)cc1 (centres unmarked) [2-Methyl-3-[4-(3-pyridylmethyl)phenyl]propionic acid ethyl ester] | 3 to 650 |
| C/C(=C\c1cccc(Cc2cccnc2)c1)C(=O)O [(E)-2-Methyl-3-[3-(3-pyridylmethyl)phenyl]acrylic acid hydrochloride] | 3 to 650 |
| C/C(=C\c1ccc(Cc2cccnc2)cc1)C(=O)Oc1ccccc1C [(E)-2-Methyl-3-[4-(3-pyridylmethyl)phenyl]acrylic acid 2-methylphenyl ester] | 3 to 650 |
| CCOC(=O)COc1ccc(Cc2cccnc2)cc1 [4-(3-Pyridylmethyl)phenoxyacetic acid ethyl ester] | 3 to 650 |
| C/C(=C\c1ccc(Cc2cnccc2C)cc1)C(=O)O [(E)-2-Methyl-3-[4-(4-methyl-3-pyridylmethyl)phenyl]acrylic acid hydrochloride] | 3 to 650 |
| C/C(=C\c1ccc(Cc2cccnc2)cc1)C(=O)Oc1cccc(C(F)(F)F)c1 [(E)-2-Methyl-3-[4-(3-pyridylmethyl)phenyl]acrylic acid 3-trifluoromethylphenyl ester] | 3 to 650 |
| C/C(=C\c1ccc(Cc2cccnc2)cc1)C(=O)Oc1ccccc1 [(E)-2-Methyl-3-[4-(3-pyridylmethyl)phenyl]acrylic acid phenyl ester] | 3 to 650 |
| C/C(=C\c1ccc(C(C)c2cccnc2)cc1)C(=O)O (centres unmarked) [(E)-2-Methyl-3-[4-(1-3'-pyridylethyl)phenyl]acrylic acid hydrochloride] | 3 to 650 |
| C/C(=C\c1ccc(Cc2cccnc2)cc1)C(=O)OCc1ccccc1 [(E)-2-Methyl-3-[4-(3-pyridylmethyl)phenyl]acrylic acid benzyl ester] | 3 to 650 |
| CCOC(=O)/C(C)=C/c1cccc(Cc2cccnc2)c1 [(E)-2-Methyl-3-[3-(3-pyridylmethyl)phenyl]acrylic acid ethyl ester] | 3 to 650 |
| CC(Cc1ccc(C(C)c2cccnc2)cc1)C(=O)O (centres unmarked) [2-Methyl-3-[4-(1-3'-pyridylethyl)phenyl]propionic acid hydrochloride] | 3 to 650 |
| C/C(=C\c1ccc(Cc2cccnc2)c(C)c1)C(=O)O [(E)-2-Methyl-3-[3-methyl-4-(3-pyridylmethyl)phenyl]acrylic acid hydrochloride] | 3 to 650 |
| O=C(O)/C=C/c1ccc(C(O)c2cccnc2)cc1 (centres unmarked) [(E)-3-[4-(3-Pyridylhydroxymethyl)phenyl]acrylic acid hydrochloride] | 3 to 650 |
| O=C(O)/C=C/c1ccc(Cc2cccnc2)s1 [(E)-5-(3-Pyridylmethyl)-2-(2-carboxyvinyl)thiophene hydrochloride] | 3 to 650 |
| CCOC(=O)CCc1ccc(Cc2cccnc2)cc1 [3-[4-(3-Pyridylmethyl)phenyl]propionic acid ethyl ester] | 3 to 650 |
| Cc1cc(/C=C/C(=O)O)ccc1Cc1cccnc1 [(E)-3-[3-Methyl-4-(3-pyridylmethyl)phenyl]acrylic acid hydrochloride] | 3 to 650 |
| C/C(=C\c1ccc(Cc2cccnc2)s1)C(=O)O [(E)-5-(3-Pyridylmethyl)-2-(2-carboxy-1-propenyl(thiophene hydrochloride] | 3 to 650 |

Test system: thromboxane synthetase
Test: not given
Conditions: prior-art compounds, literature reports as judged by the applicant; cited from earlier work

| Molecule | inhibitory activity on thromboxane synthetase |
| --- | --- |
| CCCCCC=CC[C@@H](C=CC=CCC=CCCCC(=O)O)OO [HPETE, 12L-hydroperoxy-5,8,10,14-eicosatetraenoic acid] | very weak |
| CCCCCC(O)C=CC1C2COC(C2)C1CC=CCCCC(=O)O (centres unmarked) [9,11-epoxymethano-15-hydroxyprosta-5,13-dienoic acid] | very weak |
| c1c[nH]cn1 [imidazole] | very weak |
| CC(C)c1[nH]c2ccccc2c1C(=O)c1cccnc1 [Example L-8027, 2-isopropyl-3-nicotinylindole] | very weak |
| Cn1ccnc1 [1-methylimidazole] | very weak |
| sodium p-benzyl-4-[1-oxo-2-(4-chlorobenzyl)-3-phenylpropyl]phenylphosphonate [Example N-0164] | very weak |
| CC(Cc1ccc(O)c(O)c1)C(C)Cc1ccc(O)c(O)c1 (centres unmarked) [nordihydroguaiaretic acid] | very weak |
| CCCCCC(O)C=CC1C2CC(N=N2)C1CC=CCCCC(=O)O (centres unmarked) [9,11-azo-15-hydroxyprosta-5,13-dienoic acid] | very weak |
| CCCCCCCCC1C2COC(C2)C1CCCCCCC(=O)O (centres unmarked) [9,11-epoxymethanoprostanoic acid] | very weak |
